Data set [1] deals with NACHT, LRR and PYD domains-containing protein 3 (Mus musculus) (UniProt Q8R4B8). Kind of data set: Inhibition of NLRP3 inflammasome activation in LPS-stimulated mouse J774.A1 cells assessed as reduction in pyroptosis at 10 uM pretreated for 4 hrs with LPS and for 30 mins with compound prior to ATP addition and measured after 30 mins by PI/Hoechst33342 staining based analysis. The format is cell-based. To be noted: time 60.0 min.

Data set [2] is described as follows: Cytotoxicity against human L02 cells assessed as reduction in cell viability incubated for 24 hrs by MTT assay. It counts as toxicity, cell-based. (In general: Tetrazolium dyes change colour on reduction, which living cells bring about.)
Data set [3] concerns the target NACHT, LRR and PYD domains-containing protein 3 (Mus musculus, UniProt Q8R4B8). Kind of data set: Inhibition of NLRP3 inflammasome activation in LPS/nigericin-treated C57BL/6 mouse bone marrow-derived macrophages assessed as reduction in IL-1beta secretion preincubated for 3 hrs with LPS and for 30 mins with compound prior to nigericin addition and measured after 30 mins by ELISA. The format is cell-based, BMDM.

Data set [4] in a line: Metabolic stability in human liver microsomes assessed as half life by LC-MS/MS analysis. The format is ADME, Microsome.
Data set [5] can be described thus: Metabolic stability in human liver microsomes assessed as intrinsic clearance by LC-MS/MS analysis. To be noted: read-out: CLH. The format is ADME, Microsome.
The nature of data set [6]: Metabolic stability in human hepatocytes assessed as intrinsic clearance by LC-MS/MS analysis. The format is ADME, cell-based, Hepatocyte. Conditions: read-out: CLH.

NACHT, LRR and PYD domains-containing protein 3, sequence (Q8R4B8 whole entry, the tested form may be a part): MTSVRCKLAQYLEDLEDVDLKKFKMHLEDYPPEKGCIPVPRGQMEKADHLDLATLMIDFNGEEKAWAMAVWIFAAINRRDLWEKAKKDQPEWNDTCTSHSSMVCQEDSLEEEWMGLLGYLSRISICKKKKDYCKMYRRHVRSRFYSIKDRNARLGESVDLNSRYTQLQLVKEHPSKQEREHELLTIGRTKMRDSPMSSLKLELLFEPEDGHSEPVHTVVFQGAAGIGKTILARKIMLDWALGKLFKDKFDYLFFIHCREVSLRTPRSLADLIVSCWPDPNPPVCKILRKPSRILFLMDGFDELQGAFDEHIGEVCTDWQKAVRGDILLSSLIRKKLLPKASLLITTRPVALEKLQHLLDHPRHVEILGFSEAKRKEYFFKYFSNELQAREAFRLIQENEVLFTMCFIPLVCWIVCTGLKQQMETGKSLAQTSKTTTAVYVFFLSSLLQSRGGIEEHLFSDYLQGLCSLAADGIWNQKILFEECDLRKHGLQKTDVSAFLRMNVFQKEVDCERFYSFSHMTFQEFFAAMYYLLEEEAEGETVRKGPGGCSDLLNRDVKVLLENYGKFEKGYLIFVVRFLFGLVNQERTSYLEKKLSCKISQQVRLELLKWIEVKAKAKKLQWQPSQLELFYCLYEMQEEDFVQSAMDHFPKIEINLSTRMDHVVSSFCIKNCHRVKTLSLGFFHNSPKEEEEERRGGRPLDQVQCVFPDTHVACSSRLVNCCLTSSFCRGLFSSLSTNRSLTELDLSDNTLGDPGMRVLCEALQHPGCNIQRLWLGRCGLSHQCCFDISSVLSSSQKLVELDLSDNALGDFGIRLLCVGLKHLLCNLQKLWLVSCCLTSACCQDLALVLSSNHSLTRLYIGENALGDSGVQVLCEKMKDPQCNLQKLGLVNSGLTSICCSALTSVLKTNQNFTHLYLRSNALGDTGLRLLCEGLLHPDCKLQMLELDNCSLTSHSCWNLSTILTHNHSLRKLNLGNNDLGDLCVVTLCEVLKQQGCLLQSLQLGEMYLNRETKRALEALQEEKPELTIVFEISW
NACHT, LRR and PYD domains-containing protein 3 (Mus musculus), sequence (Q8R4B8 whole entry, the tested form may be a part): as above

The inhibition is the drop in the measured response relative to a control, in per cent. The IC50 is the concentration needed to halve the response being measured. Turning to `COc1cc(/C=C/c2ccc(NC(=O)c3cccc(Br)c3)cc2)c(/C=C/[N+](=O)[O-])c(OC)c1`, the inhibition in data set [1] came to 20.1%. Moreover, the IC50 at 24 h in data set [2] is greater than 100 µM.

In the case of `COc1cc(/C=C/c2ccc(NC(=O)/C=C/c3ccccc3)cc2)c(/C=C/[N+](=O)[O-])c(OC)c1`, the inhibition in data set [1] was determined as 30.7%. Moreover, the IC50 at 24 h in data set [2] is greater than 100 µM. Besides, in data set [3], the IC50 was greater than 10 µM.

On to `COc1cc(/C=C/c2ccc(NC(=O)c3ccc(C)o3)cc2)c(/C=C/[N+](=O)[O-])c(OC)c1`, for which the inhibition in data set [1] turned out to be 69.5%. The IC50 at 24 h in data set [2] is greater than 100 µM.

For `COc1cc(/C=C/c2ccc(NC(=O)C(C)(C)C)cc2)c(/C=C/[N+](=O)[O-])c(OC)c1`, the inhibition in data set [1] was determined as 52.7%. Also, the IC50 at 24 h in data set [2] was greater than 100 µM.

On to `COc1cc(/C=C/c2ccc(NC(=O)c3ccc(C)cc3)cc2)c(/C=C/[N+](=O)[O-])c(OC)c1`, for which the inhibition in data set [1] came out at 28.6%. Moreover, the IC50 at 24 h in data set [2] is greater than 100 µM.

In the case of `COc1cc(/C=C/c2ccc(NC(=O)c3ccccn3)cc2)c(/C=C/[N+](=O)[O-])c(OC)c1`, in data set [1], the inhibition came to 60%. For the same compound, the IC50 at 24 h in data set [2] was greater than 100 µM.

Regarding `CCc1ccc(C(=O)Nc2ccc(/C=C/c3cc(OC)cc(OC)c3/C=C/[N+](=O)[O-])cc2)cc1`, in data set [1], the inhibition was found to be 39%. The IC50 at 24 h in data set [2] is greater than 100 µM.

Turning to `COc1cc(/C=C/c2ccc(NC(=O)c3ccccc3C)cc2)c(/C=C/[N+](=O)[O-])c(OC)c1`, in data set [1], the inhibition was found to be 39%. Moreover, the IC50 at 24 h in data set [2] is greater than 100 µM.

Take `COc1cc(/C=C/c2ccc(NC(=O)c3ccccc3Cl)cc2)c(/C=C/[N+](=O)[O-])c(OC)c1`: the inhibition in data set [1] came out at 28.9%. In addition, the IC50 at 24 h in data set [2] was greater than 100 µM.

`COc1cc(/C=C/c2ccc(NC(=O)c3ccc(I)cc3)cc2)c(/C=C/[N+](=O)[O-])c(OC)c1`: the inhibition in data set [1] came to 30.7%. The IC50 at 24 h in data set [2] was greater than 100 µM.

With `O=[N+]([O-])/C=C/c1ccc2c(c1)OCO2`, the inhibition in data set [1] was determined as 75.1%. Besides, the IC50 at 24 h in data set [2] stood at 39.2 µM.

Consider `COc1cc(/C=C/c2ccc(NC(=O)COc3ccccc3)cc2)c(/C=C/[N+](=O)[O-])c(OC)c1`, for which, in data set [1], the inhibition was determined as 7.5%. Also, in data set [2], the IC50 at 24 h was greater than 100 µM.

As to `COc1cc(/C=C/c2ccc(NC(=O)c3cccc(F)c3)cc2)c(/C=C/[N+](=O)[O-])c(OC)c1`, the inhibition in data set [1] was determined as 39.9%. In data set [2], the IC50 at 24 h was greater than 100 µM.

Consider `COc1cc(/C=C/c2ccc(NC(=O)c3ccccc3Br)cc2)c(/C=C/[N+](=O)[O-])c(OC)c1`, for which the inhibition in data set [1] was 36%. In addition, the IC50 at 24 h in data set [2] was greater than 100 µM. Besides, the IC50 in data set [3] is greater than 10 µM.

Usually half-life stands for how long it takes for the measured level to halve. For the compound `COc1cc(/C=C/c2ccc(NC(=O)C3CC3)cc2)c(/C=C/[N+](=O)[O-])c(OC)c1`, the half-life in data set [4] turned out to be 59.7 min. In addition, the microsomal CLint in data set [5] amounted to 23.2 µL/min/mg. For the same compound, in data set [6], the CLint scaled is 11.7 mL/min/kg.

For the compound `COc1cc(/C=C/c2ccc(NC(=O)c3cccc(C)c3)cc2)c(/C=C/[N+](=O)[O-])c(OC)c1`, in data set [1], the inhibition turned out to be 39.9%. Also, the IC50 at 24 h in data set [2] is greater than 100 µM.

Regarding `COc1cc(/C=C/c2ccc(NC(=O)c3ccccc3)cc2)c(/C=C/[N+](=O)[O-])c(OC)c1`, in data set [1], the inhibition was 72.2%. In addition, in data set [2], the IC50 at 24 h is greater than 100 µM. The IC50 in data set [3] turned out to be 1.56 µM.

Turning to `COc1cc(/C=C/c2ccc(NC(=O)c3cccs3)cc2)c(/C=C/[N+](=O)[O-])c(OC)c1`, the inhibition in data set [1] amounted to 66%. In addition, in data set [2], the IC50 at 24 h was greater than 100 µM. Moreover, the IC50 in data set [3] came out at 2.15 µM.

For the compound `COc1ccc(C(=O)Nc2ccc(/C=C/c3cc(OC)cc(OC)c3/C=C/[N+](=O)[O-])cc2)cc1`, the inhibition in data set [1] was determined as 41%. In addition, in data set [2], the IC50 at 24 h was greater than 100 µM. Further, the IC50 in data set [3] is greater than 10 µM.

Consider `COc1cc(/C=C/c2ccc(NC(=O)c3ccc(F)cc3)cc2)c(/C=C/[N+](=O)[O-])c(OC)c1`, for which, in data set [1], the inhibition amounted to 44%. In addition, the IC50 at 24 h in data set [2] was greater than 100 µM. The IC50 in data set [3] amounted to 9.34 µM.

With `COc1cc(/C=C/c2ccc(NC(=O)c3ccccc3OC)cc2)c(/C=C/[N+](=O)[O-])c(OC)c1`, in data set [1], the inhibition worked out at 31%. In addition, in data set [2], the IC50 at 24 h was greater than 100 µM.

For the compound `COc1cc(/C=C/c2ccc(NC(=O)c3cccc(Cl)c3)cc2)c(/C=C/[N+](=O)[O-])c(OC)c1`, in data set [1], the inhibition worked out at 24%. Moreover, in data set [2], the IC50 at 24 h is greater than 100 µM.

`COc1cc(/C=C/c2ccc(NC(=O)c3ccccc3F)cc2)c(/C=C/[N+](=O)[O-])c(OC)c1`: in data set [1], the inhibition amounted to 38.9%. Also, the IC50 at 24 h in data set [2] was greater than 100 µM.

`COc1cc(/C=C/c2ccc(NC(=O)c3ccoc3)cc2)c(/C=C/[N+](=O)[O-])c(OC)c1`: in data set [1], the inhibition stood at 64.2%. Also, the IC50 at 24 h in data set [2] was greater than 100 µM.

Turning to `COc1cc(/C=C/c2ccc(NC(=O)c3ccc(Br)cc3)cc2)c(/C=C/[N+](=O)[O-])c(OC)c1`, the inhibition in data set [1] is 46.2%. For the same compound, in data set [2], the IC50 at 24 h is greater than 100 µM.

`COc1cc(/C=C/c2ccc(NC(=O)c3cccc4ccccc34)cc2)c(/C=C/[N+](=O)[O-])c(OC)c1`: the inhibition in data set [1] stood at 4.62%. For the same compound, the IC50 at 24 h in data set [2] was greater than 100 µM.

For `COc1cc(/C=C/c2ccc(NC(=O)c3ccc4ccccc4c3)cc2)c(/C=C/[N+](=O)[O-])c(OC)c1`, the inhibition in data set [1] amounted to 57.2%. Also, the IC50 at 24 h in data set [2] came out at 131 µM. Besides, in data set [3], the IC50 was greater than 10 µM.

On to `COc1cc(/C=C/c2ccc(NC(=O)c3cc4ccccc4o3)cc2)c(/C=C/[N+](=O)[O-])c(OC)c1`, for which the inhibition in data set [1] is 6.47%. Further, the IC50 at 24 h in data set [2] is greater than 100 µM.

With `COc1cccc(C(=O)Nc2ccc(/C=C/c3cc(OC)cc(OC)c3/C=C/[N+](=O)[O-])cc2)c1`, the inhibition in data set [1] is 24%. Besides, the IC50 at 24 h in data set [2] was greater than 100 µM.

With `CCOc1ccc(C(=O)Nc2ccc(/C=C/c3cc(OC)cc(OC)c3/C=C/[N+](=O)[O-])cc2)cc1`, the inhibition in data set [1] came to 39.9%. The IC50 at 24 h in data set [2] is greater than 100 µM.

For `C=C1C(=O)[C@]23[C@H](O)[C@H]1CC[C@H]2[C@@]12CO[C@]3(O)[C@@H](O)[C@@H]1C(C)(C)CC[C@@H]2O` [ORIDONIN], in data set [1], the inhibition came out at 73.8%. The IC50 at 24 h in data set [2] amounted to 42.2 µM.

As for `COc1cc(/C=C/c2ccc(NC(=O)c3ccc(Cl)cc3)cc2)c(/C=C/[N+](=O)[O-])c(OC)c1`, the inhibition in data set [1] worked out at 50%. Also, the IC50 at 24 h in data set [2] is greater than 100 µM.

On to `COc1cc(/C=C/c2ccc(NC(=O)C3CCCO3)cc2)c(/C=C/[N+](=O)[O-])c(OC)c1` (centres undefined), for which the inhibition in data set [1] turned out to be 65.2%. For the same compound, in data set [2], the IC50 at 24 h is greater than 100 µM.

Source of the values: ChEMBL document CHEMBL5154869, “Discovery of 4-((E)-3,5-dimethoxy-2-((E)-2-nitrovinyl)styryl)aniline derivatives as potent and orally active NLRP3 inflammasome inhibitors for colitis” (Eur J Med Chem, 2022).
